For one test, the target named is T1, Acetylcholinesterase (Mus musculus, UniProt P21836).
T1 sequence (P21836 whole entry): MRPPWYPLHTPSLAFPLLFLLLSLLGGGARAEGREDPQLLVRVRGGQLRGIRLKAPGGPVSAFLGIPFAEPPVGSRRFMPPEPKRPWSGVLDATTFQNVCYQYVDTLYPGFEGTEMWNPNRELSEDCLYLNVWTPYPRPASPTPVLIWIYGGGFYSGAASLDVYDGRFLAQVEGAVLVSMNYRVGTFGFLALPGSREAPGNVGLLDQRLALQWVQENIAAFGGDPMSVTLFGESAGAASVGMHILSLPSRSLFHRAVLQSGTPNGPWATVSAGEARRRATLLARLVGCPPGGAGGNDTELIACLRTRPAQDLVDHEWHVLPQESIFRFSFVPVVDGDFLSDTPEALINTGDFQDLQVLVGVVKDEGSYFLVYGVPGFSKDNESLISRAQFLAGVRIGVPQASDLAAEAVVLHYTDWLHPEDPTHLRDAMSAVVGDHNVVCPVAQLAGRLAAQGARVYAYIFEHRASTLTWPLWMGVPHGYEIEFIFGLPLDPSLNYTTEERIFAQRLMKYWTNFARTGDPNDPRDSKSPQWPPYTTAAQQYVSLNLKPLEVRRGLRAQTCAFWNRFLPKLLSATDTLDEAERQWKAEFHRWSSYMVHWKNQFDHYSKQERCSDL
Description: biochemical.

Test [1] concerns the target T2, Butyrylcholinesterase (Rattus norvegicus, UniProt Q9JKC1).
Description: In vitro inhibitory concentration against Butyrylcholinesterase obtained from rat plasma
The target of test [2] is T2, Butyrylcholinesterase. As to the kind of experiment: In vitro inhibitory concentration against butyrylcholinesterase (BuChE) obtained from rat plasma. In kind it is cell-free.

T2 sequence (Q9JKC1 whole entry): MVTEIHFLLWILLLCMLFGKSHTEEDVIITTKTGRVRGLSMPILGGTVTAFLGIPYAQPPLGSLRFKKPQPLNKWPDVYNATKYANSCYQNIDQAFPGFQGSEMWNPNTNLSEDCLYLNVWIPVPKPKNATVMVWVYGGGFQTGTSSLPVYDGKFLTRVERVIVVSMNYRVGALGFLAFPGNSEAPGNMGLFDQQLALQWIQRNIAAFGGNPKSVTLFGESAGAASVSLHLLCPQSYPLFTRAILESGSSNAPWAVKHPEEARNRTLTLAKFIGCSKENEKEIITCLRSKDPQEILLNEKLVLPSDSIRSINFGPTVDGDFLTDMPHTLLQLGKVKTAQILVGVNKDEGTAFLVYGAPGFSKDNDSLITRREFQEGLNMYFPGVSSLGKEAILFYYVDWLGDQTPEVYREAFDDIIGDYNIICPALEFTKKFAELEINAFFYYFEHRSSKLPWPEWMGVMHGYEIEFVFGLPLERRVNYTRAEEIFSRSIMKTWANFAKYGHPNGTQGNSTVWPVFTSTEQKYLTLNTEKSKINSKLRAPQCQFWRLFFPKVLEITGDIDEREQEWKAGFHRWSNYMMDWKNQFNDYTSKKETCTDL
Description for Acetylcholinesterase: In vitro inhibitory concentration against acetylcholinesterase (AChE) obtained from mouse brain homogenate.

For the molecule `COc1cccc(N(CCC2CCN(Cc3ccccc3)CC2)C(C)=O)c1`, the IC50 (usually the concentration that gives 50% inhibition) on Acetylcholinesterase was 46 nM.
On the same count and under the same terms, the figure for `O=C(C1CCCCC1)N(CCC1CCN(Cc2ccccc2)CC1)c1ccccc1` is 9400 nM.
`O=c1c2ccccc2ccn1CCC1CCN(Cc2ccccc2)CC1` gave an IC50 on Acetylcholinesterase of 1100 nM.
The same measure, in the same setting: the result for `CC(=O)N(CCC1CCN(Cc2ccccc2)CC1)c1cccc(F)c1` reads 65 nM; that for `CN1CCC(CCN2C(=O)c3ccc([N+](=O)[O-])cc3C2=O)CC1`, 6800 nM; that for `COc1ccc(C(=O)N(CCC2CCN(Cc3ccccc3)CC2)c2ccccc2)cc1`, 590 nM.
Still for that read-out and setting: the figure for `CCC(=O)N(CCC1CCN(Cc2ccccc2)CC1)c1ccccc1` is 830 nM.
Same read-out and setting: the result for `O=c1c2ccccc2ncn1CCC1CCN(Cc2ccccc2)CC1` reads 1200 nM; that for `O=C1c2ccccc2CN1CCC1CCN(Cc2ccccc2)CC1`, 98 nM; that for `CC(=O)N(C)CCC1CCN(Cc2ccccc2)CC1`, 660 nM.
`O=C(c1ccc([N+](=O)[O-])cc1)N(CCC1CCN(Cc2ccccc2)CC1)c1ccccc1`: at Acetylcholinesterase, the IC50 was 5.4 nM.
For `O=C(Nc1ccc2c(c1)C(=O)N(CCC1CCN(Cc3ccccc3)CC1)C2=O)c1ccccc1`, the IC50 at Butyrylcholinesterase [1] is 42.3 µM; on Acetylcholinesterase it was 1.2 nM.
In turn, `O=C1Cc2ccccc2C(=O)N1CCC1CCN(Cc2ccccc2)CC1` yielded an IC50 on Acetylcholinesterase of 23 nM.
On the same count and under the same terms, the figure for `CN(CCC1CCN(Cc2ccccc2)CC1)C(=O)c1ccc(S(=O)(=O)Cc2ccccc2)cc1` is 0.56 nM; for `CC(=O)N(CCC1CCN(Cc2ccccc2)CC1)c1ccc(F)cc1` it is 205 nM.
The same measure, in the same setting: the result for `COc1ccc(CN2CCC(CCN3C(=O)c4ccc([N+](=O)[O-])cc4C3=O)CC2)cc1` reads 440 nM; that for `O=C1c2ccc([N+](=O)[O-])cc2C(=O)N1CCC1CCN(Cc2ccccc2)CC1`, 12.5 nM; that for `CC(=O)N(CCC1CCN(Cc2ccccc2)CC1)c1ccncc1`, 108 nM.
Still for that read-out and setting: the result for `COc1ccc(N(CCC2CCN(Cc3ccccc3)CC2)C(C)=O)cc1` reads 700 nM; that for `O=C1c2ccc([N+](=O)[O-])cc2C(=O)N1CC1CCN(Cc2ccccc2)CC1`, 3000 nM.
`c1ccc(CN2CCC(CCN3CCc4ccccc4C3)CC2)cc1`: the IC50 against Acetylcholinesterase turned out to be 1600 nM.
As for `Nc1cccc2c1C(=O)N(CCC1CCN(Cc3ccccc3)CC1)C2=O`, inhibition at Acetylcholinesterase was half-maximal at 11 nM (IC50).
The molecule `O=C1c2ccc([N+](=O)[O-])cc2C(=O)N1C1CCN(Cc2ccccc2)CC1` showed an IC50 against Acetylcholinesterase of 27000 nM.
The molecule `O=C1CCCCN1CCC1CCN(Cc2ccccc2)CC1` yielded an IC50 against Acetylcholinesterase of 270 nM.
The same measure, in the same setting: the result for `O=C(Nc1cccc2c1C(=O)N(CCC1CCN(Cc3ccccc3)CC1)C2=O)c1ccccc1` reads 340 nM.
In turn, `O=C1c2ccccc2C(=O)N1CCC1CCN(Cc2ccccc2)CC1` yielded an IC50 against Acetylcholinesterase of 30 nM. This IC50 is about 11-fold lower than that of the molecule before.
Still for that read-out and setting: the result for `O=C1c2ccc([N+](=O)[O-])cc2C(=O)N1CCC1CCN(Cc2ccc(Cl)cc2)CC1` reads 240 nM.
Consider `CNC(=O)Oc1ccc2c(c1)[C@]1(C)CCN(C)[C@@H]1N2C` [PHYSOSTIGMINE], for which the IC50 is 8.1 nM against Butyrylcholinesterase [2] and 0.69 nM on Acetylcholinesterase.

These data come from ChEMBL document CHEMBL1126101, “Synthesis and structure-activity relationships of acetylcholinesterase inhibitors: 1-benzyl-4-(2-phthalimidoethyl)piperidine and related derivatives” (J Med Chem, 1992).
